Experimental data reported in patent publication US20070264241A1, “Compounds for Enhanced Cancer Therapy” (priority 2004, published 2007).
Entries after “also recorded” stand apart in the source; their conditions may differ.

Legend:
Type in all cases: cell-based, human
[1] = system: hGBM-1, hGBM-5 and hGBM-14 glioblastoma cultures; assay: MTT assay of cell viability and proliferation in primary glioblastoma cultures
Method: Proliferation of cultured glioma cells was assessed by 3-(4,5-dimethylthiazol-2-yl)-2,5-diphenyltetrazolium bromide (MTT, Sigma) assay. MTT tetrazolium salt was dissolved in serum-free culture medium (0.5 mg/ml), added to the cells (150 μl/well) and incubated for 30 min at 37° C. Formazan dye, formed by viable cells, was solubilized in 300 μl of isopropanol. Aliquots (100 μl) of the solutions were transferred to 96-well microplates. The absorbance at 570 nm (with reference at 650 nm) was measured using a microtiter plate spectrophotometer (Anthos HT III). The results were expressed as percentage of viablecells compared to the control sample of untreated cells (100%).

[2] = system: gap junction communication in primary glioblastoma cells (hGBM-1); assay: Fluorescent dye (calcein/Dil) transfer between primary glioblastoma cells; conditions: recipient cells 5 mM 4-PB for 48 hours prior to dye transfer
Method: Primary glioblastoma cells were cultured on 35 mm petri dishes and in vitro labelled with 5 μM calcein-AM (acetomethylic ester) and 10 μM Dil (Molecular Probes) diluted in supplemented serum free medium DMEM/F12 and incubated for 30 min at 37° C. The cells were washed once with the same medium, trypsinized and suspended in the culture medium induding 10% FBS. The cells were pelleted by centrifugation at 1600 rpm for 1 minute and resuspended in fresh culture medium. The procedure was repeated twice. Following the second resuspension, the labelled cells were plated on top of unlabelled cells of the same origin. These cells were either pretreated with 4-PB at a concentration of 5 mM, or non-treated for serving as a control. The labeled cells were then allowed to settle for 1 hour, followed by analyses using epifluorescence detection microscopy every 30 minutes for up to 6 hours. GJC (gap-junction communication) were studied using an Olympus BX50WI microscope equipped with UV epifluorescence and red and green attenuating filters.

[3] = system: Cx43 in hGBM-1, hGBM-5 and hGBM-14 cells; assay: Connexin 43 expression by immunocytochemistry and Western blot in primary glioblastoma cultures
Method: Tumour cells cultured on laminin/poly-ornithine coated glass chamber slides were washed in phosphate buffered saline (PBS) and fixed in 4% paraformaldehyde in phosphate buffer for 10 minutes. Cells were washed in PBS three times and incubated with primary antibodies diluted in buffer (0.3% TX-100 (Sigma), albumin fraction V (Sigma), phosphate buffer pH 7.0) over night at 4° C. Secondary antibodies conjugated with FITC or Cy3 (Jackson lmmunoresearch Laboratories) were applied for one hour at room temperature, followed by rinsing with PBS. Antibodies bound were visualized with epifluorescence microscopy using a Leica DMRB microscope, and photographs were taken using a Nikon F50 camera. The following antibodies were used at specified dilutions: monoclonal anti GFAP, 1:500 (DAKO), monodonal anti Cx43 (1:1000, Transduction Laboratories), and FITC (1:80)-conjugated secondary antibodies (Jackson lmmunoresearch Laboratories). Primary glioblastoma cells were grown to 75% confluency and cultured for 48 hours in the presence or absence of 4-PB (2, 5 and 10 mM) and processed as previously described (Asklund et al, Exp cell Res, 2003, 284:183-193). […] For quantification, films were scanned and analysed with Image Gauge (version 3.12, Fuji Photo Film Corp.). […] All results are expressed as means ± SE for the indicated number of experiments (FIG. 6).

[4] = system: GFAP in hGBM-1, hGBM-5 and hGBM-14 cells; assay: GFAP expression by immunocytochemistry and Western blot in primary glioblastoma cultures
Method: Tumour cells cultured on laminin/poly-ornithine coated glass chamber slides were washed in phosphate buffered saline (PBS) and fixed in 4% paraformaldehyde in phosphate buffer for 10 minutes. Cells were washed in PBS three times and incubated with primary antibodies diluted in buffer (0.3% TX-100 (Sigma), albumin fraction V (Sigma), phosphate buffer pH 7.0) over night at 4° C. Secondary antibodies conjugated with FITC or Cy3 (Jackson lmmunoresearch Laboratories) were applied for one hour at room temperature, followed by rinsing with PBS. Antibodies bound were visualized with epifluorescence microscopy using a Leica DMRB microscope, and photographs were taken using a Nikon F50 camera. The following antibodies were used at specified dilutions: monoclonal anti GFAP, 1:500 (DAKO), monodonal anti Cx43 (1:1000, Transduction Laboratories), and FITC (1:80)-conjugated secondary antibodies (Jackson lmmunoresearch Laboratories). Primary glioblastoma cells were grown to 75% confluency and cultured for 48 hours in the presence or absence of 4-PB (2, 5 and 10 mM) and processed as previously described (Asklund et al, Exp cell Res, 2003, 284:183-193). Briefly, cell extracts, containing equal amount of protein (30 μg/lane for Cx43 detection and 60 μg/lane for GFAP detection) were loaded on 10% polyacrylamide gels, separated by SDS-PAGE, and electro-transferred onto nitrocellulose membranes. A rabbit polyclonal antibody to Cx43 diluted 1:8000 (Sigma) or a mouse monoclonal antibody to GFAP diluted 1:1000 (Pharmingen) were applied overnight at […]. The detection step was performed with the enhanced chemiluminescence (ECL) detection kit (Amersham). The membranes were exposed to Hyperfilm-ECL (Amersham) for 1-5 min. For quantification, films were scanned and analysed with Image Gauge (version 3.12, Fuji Photo Film Corp.). Data analysis was performed using the program Sigma Plot for Windows (version 6, Jandel Corp.). All results are expressed as means ± SE for the indicated number of experiments (FIG. 6).

Substance: 4-phenylbutyrate [4-PB]
- anti-proliferative effect by phase contrast microscopy ([1]; after 24 hours of treatment): Anti-proliferative effects were seen
- 4-PB concentration at which the culture shows significant sensitivity (MTT) ([1]; hGBM-1 culture): 5 mM
- 4-PB concentration at which the culture is significantly affected (MTT) ([1]; hGBM-5 culture): 10 mM
- 4-PB concentration at which the culture is significantly affected (MTT) ([1]; hGBM-14 culture): 10 mM
- intercellular spread of calcein (gap junction dye transfer) [2]: markedly improved; also recorded: facilitated gap junction dependent calcein transfer substantially
- Cx43 immunoreactivity at the cell surface (immunocytochemistry) ([3]; 5 mM 4-PB for 48 hours): marked increase
- non-phosphorylated and phosphorylated isoforms of Cx43 (Western blot) ([3]; 4-PB 2-10 mM, 48 hours): increased quantitatively; also recorded: marked increase
- phosphorylated isoform of GFAP (Western blot) ([4]; 4-PB 2, 5, 10 mM, 48 hours): remained stable
- GFAP immunostaining intensity (immunocytochemistry) ([4]; all three cultures, 5 mM 4-PB for 48 hours): more intense immunostaining; also recorded: increased
- non-phosphorylated isoform of GFAP (Western blot) ([4]; hGBM-5 and hGBM-14, 4-PB 2, 5, 10 mM, 48 hours): upregulated; also recorded: increase
